Row | melting point [°C] | Structure (SMILES)
1 | 158 to 162 | COc1ccccc1[C@H](c1cccc2ccccc12)[C@@](C)(C#N)C(=O)N1CCN(c2cccc(C(F)(F)F)c2)CC1
2 | 200 to 207 | O=[N+]([O-])c1ccc2c([N+](=O)[O-])c(O)c(O)cc2c1
3 | 191 to 193 | COc1ccc(Nc2cc3c(cc2Nc2ccc(OC)cc2)C(=O)NC3=O)cc1
4 | 215 to 217 | O=C(CCc1ccc([N+](=O)[O-])cc1)c1c(O)c2cccnc2n(-c2ccccc2)c1=O
5 | 196 to 198 | O=C(O)c1ccc(C#Cc2ccccc2F)o1
6 | 157 to 158 | CN1C(=O)CN(N=Cc2ccccc2)C(c2ccccc2)c2cc(Cl)ccc21 (configuration not stated)
7 | 133 to 134 | CC(C)(O)CCOc1c(-c2ccc(S(C)(=O)=O)cc2)cnn(-c2ccc(F)cc2)c1=O
8 | 294 | CC(=O)Nc1ccc2nc(NC3=NCCN3)[nH]c2c1
9 | 114 to 116 | CCOC(=O)c1cc2ccc3oc4ccccc4c3c2n1C
10 | 183 to 185 | COc1ccc(-c2c(-c3ccccc3)nc3n2Cc2ccccc2C3)cc1
11 | 156 to 158 | Cn1c(C(F)(F)F)cc(=O)n(-c2cc(OCc3cccs3)c(Cl)cc2F)c1=O
12 | 160 to 161 | N#Cc1cccc(-c2cnn(-c3ccccn3)c2)c1
13 | 138 to 140 | CCCOc1cccc(-c2nc(=O)c3ccccc3s2)n1
14 | 96 to 110 | CNC(=O)c1cc(N(C)C)ccc1Nc1nc(Nc2cc3c(cc2OC)CCN(CC(=O)N(C)C)CC3)ncc1Cl
15 | 145 | CNCCOc1ccc(C=CC(=O)N2CCc3c([nH]c4ccccc34)C2c2ccc3c(c2)CCO3)cc1 (configuration not stated)
16 | 169 to 171 | COc1cc(Nc2c(C#N)cnc3cc(C#C[Si](C)(C)C)sc23)c(Cl)cc1Cl
17 | 184 to 188 | Cn1c(COc2ccc(CC3SC(=O)NC3=O)cc2)nc2ccc(OCCc3ccc(N)cc3)cc21 (configuration not stated)
18 | 206 to 207 | CC(C)(C)OC(=O)c1nc(-c2ccc(Cl)cc2)[nH]c1-c1ccncc1
19 | 157 to 158 | Cc1cc(-c2cc(CO)c(=O)n(Cc3ccc(Cl)cc3)n2)ccc1F
20 | 224 to 225 | COC(=O)C1=C(C)Nc2nccn2C1c1cccc(N)c1 (configuration not stated)
21 | 162 to 164 | O=C(Nc1ccnn1-c1ccc(Cl)cc1Cl)c1cccnc1Cl
22 | > 300 | O=S(=O)(O)c1ccccc1Nc1ccnc2cc(Cl)ccc12
23 | 82 to 100 | O=C1N(CC2CCCO2)c2ccccc2C12COc1cc3c(cc12)C(=NO)CO3 (configuration not stated)
24 | 166 to 169 | CC1(C)Nc2ccccc2-n2cnc(-c3noc(C4CC4)n3)c21
25 | 178 | CCn1nc(-c2ccc(OC)c(F)c2)c(-c2ccc(OC)c(F)c2)cc1=O

Row | melting point [°C] | Structure (SMILES)
26 | 176 | CCOC(=O)c1cc(-c2ccc(Br)cc2)n(-c2ccc(S(C)(=O)=O)cc2)n1
27 | 88 to 90 | CCCc1cc2c(c3ccc(OC)cc13)OCc1cc(OC)ccc1-2
28 | 185 to 186 | Cc1oc(-c2ccccc2)nc1COc1ccc(COc2ccc(O)cc2CC#N)cc1
29 | 222 to 224 | O=C(O)Cc1cccc2c(=O)cc(-c3cc(F)ccc3F)oc12
30 | 32 | CCCCCc1ccc(-c2ccc(Cl)s2)cn1
31 | 88 to 90 | Cc1cc(Cl)ccc1N1CCCN(CC(C)C)C1=S
32 | 183 to 185 | COc1ccc(COc2ccc(CSc3ccc(OCC(=O)O)c4c3CCC4)cc2)cc1
33 | 126 to 127 | CN(C)C=C1CSc2ccc(Cl)cc2C1=O
34 | 181 to 192 | O=C(Nc1ccc(C(=O)N2CCc3cn[nH]c3-c3ncccc32)c(Cl)c1)c1ccccc1-c1ccccc1
35 | 169 to 170 | CNc1nnc(-c2ccc3occ(-c4cccc(OC(F)(F)F)c4)c3c2)o1
36 | 85 to 86 | O=Cc1cn(Cc2ccccc2)nc1OCc1ccccc1
37 | 139 | CCOC(=O)CCCOc1cccc(Oc2nc(OC)cc(OC)n2)c1C=NNc1ccc(Cl)cc1
38 | 170 to 171 | CC1(C)CN=C2C(=O)c3cc(S(=O)(=O)N4CCc5ccccc54)ccc3N2C1
39 | 180 to 182 | Cc1nc(C)n(CCOCC2=C(C(=O)OC(C)C)C(c3ccccc3Cl)C(C(=O)Nc3ccccn3)=CN2)c1C (configuration not stated)
40 | 138 | CC(C)CNc1nc(-c2ccccc2)c(Br)n2ccnc12
41 | 179 to 180 | Cc1oc(-c2ccccc2)nc1COc1cccc(COc2ccc(CC(=O)O)cc2)c1
42 | 270 to 276 | Cc1cc2nc(NC(=O)NCCN3CCOCC3)sc2cc1OC(C)c1c(Cl)ccc(F)c1Cl (configuration not stated)
43 | 236 to 238 | c1cc(Nc2csc3cnccc23)ccn1
44 | 171 to 172 | CC(CNc1ccc(C(=O)O)cc1)Oc1ccc(F)cc1 (configuration not stated)
45 | 193 | OC(c1ncc[nH]1)(c1ccc(Cl)cc1Cl)c1ccc(Cl)cc1Cl
46 | 144 to 146 | CC(O)(CCN)c1ccc(-c2ccc(F)cc2)cc1 (configuration not stated)
47 | 210 to 211 | O=C(c1ccc(Cl)cc1)c1ccc(Cl)[nH]1
48 | 127 to 129 | Cc1ccc(-n2nc3c(cc2=O)CCCc2sc(C=O)cc2-3)cc1
49 | 68 to 70 | OCCOc1ccc2ncccc2c1
50 | 130 | Cc1c(NC(=O)OCc2ccccc2)cccc1C(C[N+](=O)[O-])c1c[nH]c2cc(OC3CCOC3)ccc12 (configuration not stated)

Second part, the compound before the results:

Row | Structure (SMILES) | melting point [°C]
51 | CCCn1c(C)nc(N2CCc3ccccc3CC2)c([N+](=O)[O-])c1=O | 164 to 170
52 | OCc1[nH]c(=S)n(C2CCc3ccccc3C2)c1CO (configuration not stated) | 199 to 200
53 | Cc1nc2ncnn2c2c1CCN2CC(C)C | 143 to 145
54 | C[Si](C)(O)O[Si](C)(C)c1ccc(OC(=O)Oc2ccc([Si](C)(C)O[Si](C)(C)O)cc2)cc1 | 62 to 63
55 | CN(C(=O)CBr)c1ccc(OCC(=O)N[C@@H](CC(N)=O)C(=O)N[C@@H](Cc2ccccc2)[C@H](O)C(=O)N2CCC[C@H]2C(=O)NC(C)(C)C)cc1 | 116 to 122
56 | O=[N+]([O-])c1cn2c(n1)O[C@@H](COc1ccc(N3CCC(COc4ccc(C(F)(F)F)cc4)CC3)cc1)C2 | 175 to 180
57 | COC(=O)c1cc(C)sc1S(N)(=O)=O | 137 to 138
58 | Cc1nc(NC(=O)c2ccco2)sc1C(=O)c1sc(NC(=O)c2ccco2)nc1C | 198 to 199
59 | CC(C)(C)NC(=O)N1CCn2c(Cl)c(-c3ccccc3)c(C(N)=O)c2C1 | 192 to 195
60 | Cc1cccc(CCCCCCCCC(=O)O)c1 | 39 to 40
61 | NC(=S)NN=C(CNC(=O)c1ccccc1)c1ccccc1 | 171 to 172
62 | O=C1NC(=O)C(c2ccccc2)(c2ccccc2)N2CCN(C(=O)OCc3ccccc3)CC12 (configuration not stated) | 151 to 152
63 | CCC1(C(=O)C(C(O)C(Cl)(Cl)Cl)n2cncn2)CCCC1 (configuration not stated) | 194 to 196
64 | c1ccn(Nc2ccncn2)c1 | 134 to 136
65 | CCONC(=O)COc1cccc2c1c(C(=O)C(N)=O)c(CC)n2Cc1ccccc1 | 176 to 178
66 | COc1ccc(C=CC(=O)O)cc1-c1cc2c(cc1OCCCCCC(=O)O)C(C)(C)CCC2(C)C | 166 to 168
67 | COc1cc(C(OC(C)=O)C(COC(C)=O)[N+](=O)[O-])ccc1OC(C)=O (configuration not stated) | 97 to 100
68 | O=C(NC1CCCCC1)NS(=O)(=O)c1ccc2c(c1)CCN(C(=O)N1CCCCC1)CC2 | 166 to 167
69 | COCc1c(C(=O)O)ncc2c1c1c(Oc3ccc([N+](=O)[O-])cc3)cccc1n2CC(=O)N(C)CCc1ccccc1 | 231 to 232
70 | CCCCN1CN(C2CC(OC(=O)c3ccccc3C)C(COC(=O)c3ccccc3C)O2)C(=O)NC1=O (configuration not stated) | 170 to 172
71 | CCCCCCCCCCCCCCCC(=O)Oc1c(F)c(F)c(F)c(F)c1F | 42 to 44
72 | Cc1ccc(-c2coc(-c3ccc4c(c3)C(C)(C)CCC4(C)C)c2)cc1 | 155 to 157
73 | Cc1nn(C)c(F)c1C(=O)Nc1cccc2c1C(C)CC2(C)C (configuration not stated) | 137
74 | CNC(=O)[C@@H]1C=CCN1S(=O)(=O)c1ccc(Cl)c(CBr)c1Cl | 66

Row | Structure (SMILES) | melting point [°C]
75 | CCNc1cc(NS(=O)(=O)c2ccc(N)cc2)nc(N2CCC2)n1 | 260 to 262
76 | Cc1cc(OCC(F)(F)F)c(NC(=O)CN2CCN(CCO)CC2)c(OCC(F)(F)F)n1 | 117 to 118
77 | C=CCN(CC=C)CCCCC(=O)c1ccc2c(c1)Cc1cc(C(=O)CCCCN(CC=C)CC=C)ccc1O2 | 54 to 55
78 | Nc1c(F)c(N2C[C@H](CF)[C@H](N)C2)c(F)c2c1c(=O)c(C(=O)O)cn2C1CC1 (relative stereo) | 248 to 249
79 | CC(C)CCNC(=O)c1ccccc1-c1ccccc1CNS(=O)(=O)c1ccc(F)cc1 | 149
80 | N=C(Nc1ccc(C2CCCC2)c(CN2CCC[C@H]2CO)c1)c1cccs1 | 132 to 133
81 | OCc1cc2cnc(Cl)nc2n1C1CCCC1 | 174 to 176
82 | O=C(OCP(=O)(C1CCCCC1)C1CCCCC1)c1ccc(C(=O)OCP(=O)(C2CCCCC2)C2CCCCC2)cc1 | 226 to 228
83 | COC(=O)c1nc2sc(CC(C)C)c(C)c2c(=O)[nH]1 | 173 to 175
84 | COc1c(C)c(N2CCN(c3ccc(F)cc3)CC2)c(C)c2c1OC(C)(C)C2 | 137 to 139
85 | CCOC(=O)C1CN(c2cc3ccccc3c(=O)[nH]2)CCN1C (configuration not stated) | 105 to 109
86 | CC1=NC(NCc2ccc(O)c(OC(F)F)c2)C(C)(Cl)C=N1 (configuration not stated) | 167 to 168
87 | NNc1cccc(F)c1[N+](=O)[O-] | 93 to 95
88 | CSc1ccc2c(c1)C(=O)C(C)(C)C(=O)N2 | 152
89 | CCOC(=O)c1sc(=O)[nH]c1C(Cl)(Cl)Cl | 109 to 110
90 | CN(C)OC(=O)c1c(O)cccc1Cl | 104 to 106
91 | COc1ccc(CN2CC=C(/C=C/c3ccc(C#N)cc3)CC2)cc1 | 120 to 121
92 | CCCn1c(CCOC)nc2c(N)nc3cc(OC4CCN(C(=O)C(C)C)CC4)ccc3c21 | 165 to 166
93 | CCOCc1nc2c(N)nc3cc(Br)ccc3c2n1CCCCNC(=O)NC(C)C | 211
94 | CCOC(=O)C(=O)Nc1cccc(F)c1O | 168
95 | CC(C)(C)OC(=O)c1ccc(C=NON)cc1 | 153 to 155
96 | N#CC(C(N)=S)=C(N)N1CCCC1 | 164
97 | O=c1[nH]c(CCCN2CCCC2)cc2ccccc12 | 117 to 119

Source: a melting point compilation (Tetko et al.; mined from patent text by program, amines drawn as free bases though some values may be those of a salt)
